According to article PMC10378394 (Current Issues in Molecular Biology, 2023):

Columns and labels:
[1] = molecular target: PI3Kinase(p110a(H1047R)/p85a)(m) (Mus musculus, UniProt P42337, H1047R); assay: Eurofins kinase assay
[2] = 2-week repeated oral DRF toxicity study; assay type: in vivo
[3] = molecular target: IGF-1R(h) (Homo sapiens, UniProt P08069); assay: Eurofins kinase assay
[4] = molecular target: T1, TIE2 (Mus musculus, UniProt Q02858); assay: Western blot in BMDMs, ligand-dependent phosphorylation; assay type: cell-based; settings: 2 h treatment, angiopoietin 2 100 ng/mL 15 min
T1 construct: endogenous in cells; host or cells: mouse bone-marrow-derived macrophages (BMDMs)
Protocol: (§1) HCT116, LS513, SW620, HUVECs, and HT29 cell lines were purchased from the Korean Cell Line Bank (Seoul, Korea). All cell lines were maintained in RPMI or DMEM (Gibco Inc., Billings, MT, USA) supplemented with 10% FBS (Gibco, USA) and penicillin–streptomycin in an incubator at 37 °C and 5% CO2. Bone marrow cells were isolated from the femur and tibia of mice using a single-pass bone marrow aspiration. Cells were cultured in RPMI medium supplemented with 10% FBS and 100 ng/mL CSF1 (Peprotech, Rocky Hill, NJ, USA) for 7 days to differentiate into bone-marrow-derived macrophages (BMDMs).
(§2) In 6-well plates, LS513 cells were seeded and allowed to adhere and proliferate for 24 h. […] After treatment, the cells were harvested using RIPA lysis buffer to extract cellular proteins. The cell lysates were subjected to Western blot analysis. […] The cell lysates were analyzed by Western blot using specific antibodies, such as p-CSF1R (Cell Signaling, #14591S), CSF1R (Cell Signaling, #67455S), p-TIE2 (Cell Signaling, #4221S), and TIE2 (Santa Cruz Biotechnology, Dallas, TX, USA, #sc-293414), to detect and analyze the respective proteins.

[5] = molecular target: T2, CSF1R (Mus musculus, UniProt P09581); assay: as above; assay type: cell-based; settings: 2 h treatment, CSF1 100 ng/mL 15 min
T2 construct: endogenous in cells; host or cells: mouse bone-marrow-derived macrophages (BMDMs)
Protocol: as §1, §2

[6] = molecular target: PI3Kinase(p110a/p85a)(h) (Homo sapiens, UniProt P42336); assay: Eurofins kinase assay
[7] = system: LS513 (KRAS G12D); assay: Cell proliferation assay (CellTiter-Glo); settings: Homo sapiens, LS-513, 72 h
Protocol: (§3) To assess cell viability, the CellTiter-Glo Luminescent Cell Viability Assay Reagent (Promega, Fitchburg, WI, USA) was added to each well. The assay measured ATP levels as an indicator of cell viability. All data points were normalized to the control samples treated with dimethyl sulfoxide when determining IC50 values. Statistical calculations and data analysis, including IC50 determination, were performed using GraphPad Prism software.

[8] = molecular target: CK1δ(h) (Homo sapiens, UniProt P48730); assay: Eurofins kinase assay
[9] = molecular target: Aurora-A(h) (Homo sapiens, UniProt O14965); assay: Eurofins kinase assay
[10] = system: SW620 (KRAS G12V); assay: Cell proliferation assay (CellTiter-Glo); settings: Homo sapiens, SW-620, 72 h
Protocol: as §3

[11] = molecular target: PKCι(h) (Homo sapiens, UniProt P41743); assay: Eurofins kinase assay
[12] = molecular target: PKCμ(h) (Homo sapiens, UniProt Q15139); assay: Eurofins kinase assay
[13] = molecular target: PDK1(h) (Homo sapiens, UniProt O15530); assay: Eurofins kinase assay
[14] = molecular target: Rsk1(r) (Rattus norvegicus, UniProt Q63531); assay: Eurofins kinase assay
[15] = molecular target: ATR/ATRIP(h) (Homo sapiens, UniProt Q13535); assay: Eurofins kinase assay
[16] = molecular target: Bmx(h) (Homo sapiens, UniProt P51813); assay: Eurofins kinase assay
[17] = Single oral dose toxicity study; assay type: in vivo, Sprague Dawley rats; settings: 500 mg/kg oral

Chain of Rsk1(r) (Q63531 whole entry): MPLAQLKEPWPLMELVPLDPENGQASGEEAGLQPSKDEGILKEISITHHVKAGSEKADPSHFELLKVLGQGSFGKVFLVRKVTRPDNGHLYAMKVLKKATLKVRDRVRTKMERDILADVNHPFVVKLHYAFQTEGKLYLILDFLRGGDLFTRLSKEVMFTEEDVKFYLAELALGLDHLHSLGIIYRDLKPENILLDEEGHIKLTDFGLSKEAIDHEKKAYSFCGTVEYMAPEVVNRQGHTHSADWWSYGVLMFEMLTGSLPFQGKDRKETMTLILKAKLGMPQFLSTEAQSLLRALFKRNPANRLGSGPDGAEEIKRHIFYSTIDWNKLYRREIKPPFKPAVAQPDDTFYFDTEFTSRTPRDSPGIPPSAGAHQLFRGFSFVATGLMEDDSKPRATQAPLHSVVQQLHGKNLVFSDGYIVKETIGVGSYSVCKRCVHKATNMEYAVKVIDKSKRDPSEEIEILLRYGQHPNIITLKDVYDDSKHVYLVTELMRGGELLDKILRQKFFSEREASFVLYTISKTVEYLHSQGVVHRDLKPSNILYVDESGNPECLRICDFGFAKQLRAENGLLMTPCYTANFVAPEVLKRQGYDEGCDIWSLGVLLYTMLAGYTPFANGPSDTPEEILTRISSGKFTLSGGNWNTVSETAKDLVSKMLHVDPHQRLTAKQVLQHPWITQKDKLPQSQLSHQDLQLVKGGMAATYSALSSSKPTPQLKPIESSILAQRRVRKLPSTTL
Chain of Bmx(h) (P51813 whole entry): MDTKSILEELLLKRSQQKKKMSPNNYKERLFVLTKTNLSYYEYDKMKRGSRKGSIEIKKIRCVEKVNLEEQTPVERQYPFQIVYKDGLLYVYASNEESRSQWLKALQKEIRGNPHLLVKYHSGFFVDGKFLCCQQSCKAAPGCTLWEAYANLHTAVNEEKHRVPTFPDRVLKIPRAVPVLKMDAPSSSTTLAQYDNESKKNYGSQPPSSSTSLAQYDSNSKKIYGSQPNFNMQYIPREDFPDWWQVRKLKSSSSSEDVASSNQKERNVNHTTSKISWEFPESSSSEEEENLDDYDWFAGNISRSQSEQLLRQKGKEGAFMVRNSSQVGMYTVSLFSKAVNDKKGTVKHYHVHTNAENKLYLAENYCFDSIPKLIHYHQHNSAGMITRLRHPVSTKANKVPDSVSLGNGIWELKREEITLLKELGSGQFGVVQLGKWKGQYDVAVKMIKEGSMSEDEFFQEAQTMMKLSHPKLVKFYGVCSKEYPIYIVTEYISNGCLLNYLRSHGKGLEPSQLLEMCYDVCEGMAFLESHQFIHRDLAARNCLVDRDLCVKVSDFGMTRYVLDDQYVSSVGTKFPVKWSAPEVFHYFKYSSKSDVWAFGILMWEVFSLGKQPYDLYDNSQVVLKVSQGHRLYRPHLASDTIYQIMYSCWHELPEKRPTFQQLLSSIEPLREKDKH
Chain of ATR/ATRIP(h) (Q13535 whole entry): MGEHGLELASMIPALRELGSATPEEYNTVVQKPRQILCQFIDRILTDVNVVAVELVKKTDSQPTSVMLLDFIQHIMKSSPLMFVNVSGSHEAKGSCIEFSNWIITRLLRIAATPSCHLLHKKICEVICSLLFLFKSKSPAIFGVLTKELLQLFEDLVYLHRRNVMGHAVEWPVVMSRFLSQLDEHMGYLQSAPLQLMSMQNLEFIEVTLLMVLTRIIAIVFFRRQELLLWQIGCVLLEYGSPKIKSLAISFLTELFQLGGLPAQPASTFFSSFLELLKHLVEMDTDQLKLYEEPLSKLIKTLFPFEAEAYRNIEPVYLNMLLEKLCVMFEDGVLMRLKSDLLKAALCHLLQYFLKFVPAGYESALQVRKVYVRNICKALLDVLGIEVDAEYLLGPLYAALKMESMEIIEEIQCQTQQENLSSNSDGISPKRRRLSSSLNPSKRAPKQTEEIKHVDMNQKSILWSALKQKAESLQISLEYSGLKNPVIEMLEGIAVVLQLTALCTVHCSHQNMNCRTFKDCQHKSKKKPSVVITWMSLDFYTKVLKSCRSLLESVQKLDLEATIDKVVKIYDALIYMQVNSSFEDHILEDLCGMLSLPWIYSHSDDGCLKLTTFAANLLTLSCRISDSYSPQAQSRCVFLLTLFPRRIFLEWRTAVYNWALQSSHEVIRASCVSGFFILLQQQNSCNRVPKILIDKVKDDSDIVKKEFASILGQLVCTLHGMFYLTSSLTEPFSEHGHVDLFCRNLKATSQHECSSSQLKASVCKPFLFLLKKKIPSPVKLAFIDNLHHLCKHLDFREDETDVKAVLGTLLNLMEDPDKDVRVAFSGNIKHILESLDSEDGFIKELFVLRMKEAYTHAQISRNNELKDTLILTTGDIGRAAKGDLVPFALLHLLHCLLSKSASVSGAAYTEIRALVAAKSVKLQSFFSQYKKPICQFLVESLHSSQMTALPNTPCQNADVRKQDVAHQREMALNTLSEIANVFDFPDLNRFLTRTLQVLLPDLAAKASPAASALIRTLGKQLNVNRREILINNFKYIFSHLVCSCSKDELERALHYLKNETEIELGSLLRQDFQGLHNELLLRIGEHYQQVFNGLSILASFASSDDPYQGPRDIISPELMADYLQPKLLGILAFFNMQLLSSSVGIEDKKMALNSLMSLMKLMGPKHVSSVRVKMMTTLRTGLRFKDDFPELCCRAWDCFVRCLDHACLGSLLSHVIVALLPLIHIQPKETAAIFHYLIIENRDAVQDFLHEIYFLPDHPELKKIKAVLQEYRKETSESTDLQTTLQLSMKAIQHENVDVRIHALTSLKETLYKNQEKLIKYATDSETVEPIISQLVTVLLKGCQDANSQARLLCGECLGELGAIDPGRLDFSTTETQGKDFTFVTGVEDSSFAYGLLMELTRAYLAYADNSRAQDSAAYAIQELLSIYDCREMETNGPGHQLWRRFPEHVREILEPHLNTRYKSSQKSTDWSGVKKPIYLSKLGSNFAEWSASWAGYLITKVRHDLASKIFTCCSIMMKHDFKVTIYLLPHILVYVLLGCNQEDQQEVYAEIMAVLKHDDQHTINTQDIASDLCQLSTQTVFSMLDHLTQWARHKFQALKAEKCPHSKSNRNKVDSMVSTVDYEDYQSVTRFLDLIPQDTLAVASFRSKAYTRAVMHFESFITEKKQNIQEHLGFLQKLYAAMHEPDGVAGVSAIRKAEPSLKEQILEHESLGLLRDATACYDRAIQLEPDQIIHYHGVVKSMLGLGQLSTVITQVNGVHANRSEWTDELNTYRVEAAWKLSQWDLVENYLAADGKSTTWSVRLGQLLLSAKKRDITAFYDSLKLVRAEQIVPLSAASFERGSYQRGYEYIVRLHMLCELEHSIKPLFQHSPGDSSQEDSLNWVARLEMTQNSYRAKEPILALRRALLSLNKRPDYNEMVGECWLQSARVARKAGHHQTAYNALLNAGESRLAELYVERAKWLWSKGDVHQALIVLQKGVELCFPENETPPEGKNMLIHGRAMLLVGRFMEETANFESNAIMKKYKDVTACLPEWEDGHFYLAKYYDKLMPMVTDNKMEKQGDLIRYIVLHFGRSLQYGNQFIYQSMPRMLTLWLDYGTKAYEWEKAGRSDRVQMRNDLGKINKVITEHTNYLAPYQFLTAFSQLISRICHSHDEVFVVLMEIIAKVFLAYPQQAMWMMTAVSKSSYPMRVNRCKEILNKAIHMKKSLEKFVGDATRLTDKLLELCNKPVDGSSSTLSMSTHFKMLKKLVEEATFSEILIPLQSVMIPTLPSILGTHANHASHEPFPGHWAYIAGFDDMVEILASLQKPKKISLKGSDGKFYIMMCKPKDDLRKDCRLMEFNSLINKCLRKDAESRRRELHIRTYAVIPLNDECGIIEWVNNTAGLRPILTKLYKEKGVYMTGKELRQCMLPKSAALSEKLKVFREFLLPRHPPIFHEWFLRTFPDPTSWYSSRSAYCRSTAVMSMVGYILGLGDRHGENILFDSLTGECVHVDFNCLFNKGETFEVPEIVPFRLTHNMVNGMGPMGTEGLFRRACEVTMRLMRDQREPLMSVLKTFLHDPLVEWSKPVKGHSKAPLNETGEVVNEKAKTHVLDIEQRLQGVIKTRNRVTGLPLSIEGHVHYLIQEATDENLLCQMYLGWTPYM
Chain of ATR/ATRIP(h) (Q8WXE1 whole entry partner): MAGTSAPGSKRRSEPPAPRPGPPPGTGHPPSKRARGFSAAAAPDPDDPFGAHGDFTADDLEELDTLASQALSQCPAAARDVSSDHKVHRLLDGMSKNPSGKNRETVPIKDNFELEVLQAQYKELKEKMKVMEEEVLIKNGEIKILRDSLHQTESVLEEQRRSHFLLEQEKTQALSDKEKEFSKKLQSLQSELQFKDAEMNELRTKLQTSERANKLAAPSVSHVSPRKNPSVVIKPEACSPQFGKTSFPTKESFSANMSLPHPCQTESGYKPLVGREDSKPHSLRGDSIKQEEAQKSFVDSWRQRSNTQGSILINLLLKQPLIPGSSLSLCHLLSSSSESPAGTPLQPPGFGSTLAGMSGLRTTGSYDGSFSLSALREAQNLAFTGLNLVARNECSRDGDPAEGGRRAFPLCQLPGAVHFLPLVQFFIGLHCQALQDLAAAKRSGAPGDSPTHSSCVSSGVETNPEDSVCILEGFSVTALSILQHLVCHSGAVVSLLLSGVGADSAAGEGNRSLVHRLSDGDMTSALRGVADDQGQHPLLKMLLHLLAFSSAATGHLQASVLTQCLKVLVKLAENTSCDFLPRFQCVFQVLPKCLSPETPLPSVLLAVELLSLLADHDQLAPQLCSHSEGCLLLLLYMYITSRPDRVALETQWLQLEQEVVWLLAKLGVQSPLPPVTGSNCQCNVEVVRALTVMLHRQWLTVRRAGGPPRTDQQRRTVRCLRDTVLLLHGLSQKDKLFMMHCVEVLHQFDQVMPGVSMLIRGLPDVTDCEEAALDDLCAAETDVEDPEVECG

In the case of O=C(Nc1cc(Nc2ncccc2-c2ncnc3[nH]cnc23)ccc1F)c1cc(C(F)(F)F)cc(C(F)(F)F)c1 [SJ-C1044, N-(5-(3-(9H-purin-6-yl)pyridin-2-ylamino)-2-fluorophenyl)-3,5-bis(trifluoromethyl)benzamide], the inhibition at 10 µM [1] is reported as 37%, the “2-week repeated oral toxicity” value ([2]; 250 mg/kg oral) is reported as “no toxicity” and the “2-week repeated oral toxicity” value ([2]; 500 mg/kg oral) is reported as “decreased body weight”. The inhibition at 10 µM [3] was -24%, the “ligand-dependent phosphorylation of TIE2” value [4] was “significant inhibitory effects” and the “ligand-dependent phosphorylation of CSF1R” value [5] was “significant inhibitory effects”. For the same compound, the inhibition at 10 µM [6] was 23%, the GI50 [7] was 290 nM and the inhibition at 10 µM [8] was 0%. The inhibition at 10 µM [9] was 3%, the GI50 [10] was 628 nM and the inhibition at 10 µM [11] was 11%. The inhibition at 10 µM [12] was -3%, the inhibition at 10 µM [13] was 0% and the inhibition at 10 µM [14] was -12%. The inhibition at 10 µM [15] was 8%, the inhibition at 10 µM [16] was -1% and the “single oral dose toxicity” value [17] was “no respiratory effects or signs of toxicity”.
